These results are taken from PMC4325472, “An Expedient Synthesis, Acetylcholinesterase Inhibitory Activity, and Molecular Modeling Study of Highly Functionalized Hexahydro-1,6-naphthyridines” (BioMed Research International, 2015).

Molecules are shown by their SMILES.

In one assay the target is T1, acetylcholinesterase enzyme from Electrophoruselectricus (AChE enzyme from electric eel) (Electrophorus electricus, UniProt O42275).
T1 construct: purchased Sigma
T1 sequence (O42275 24-633): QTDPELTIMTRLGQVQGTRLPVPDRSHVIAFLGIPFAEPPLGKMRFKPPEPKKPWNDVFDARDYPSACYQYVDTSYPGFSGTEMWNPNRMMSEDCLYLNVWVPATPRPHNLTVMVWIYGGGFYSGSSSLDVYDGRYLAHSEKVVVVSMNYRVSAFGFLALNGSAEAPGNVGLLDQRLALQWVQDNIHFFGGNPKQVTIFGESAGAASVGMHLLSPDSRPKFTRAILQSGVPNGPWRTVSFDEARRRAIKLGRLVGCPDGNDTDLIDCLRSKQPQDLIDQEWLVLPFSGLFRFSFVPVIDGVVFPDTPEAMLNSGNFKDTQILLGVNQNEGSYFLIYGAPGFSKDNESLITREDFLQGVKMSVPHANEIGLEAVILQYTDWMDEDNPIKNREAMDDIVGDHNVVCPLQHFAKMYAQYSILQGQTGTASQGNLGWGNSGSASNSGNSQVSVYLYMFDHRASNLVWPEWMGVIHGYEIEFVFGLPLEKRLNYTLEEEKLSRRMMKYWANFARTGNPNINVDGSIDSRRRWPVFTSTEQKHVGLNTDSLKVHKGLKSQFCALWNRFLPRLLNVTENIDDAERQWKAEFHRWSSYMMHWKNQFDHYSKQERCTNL
Kind of assay: biochemical.
Conditions: not given
How it is done: Cholinesterase inhibitory activity of the synthesized compounds was evaluated using the Ellman's microplate assay. For acetylcholinesterase (AChE) inhibitory assay, 140 μL of 0.1 M sodium phosphate buffer (pH 8) was first added to a 96-well microplate followed by 20 μL of test samples and 20 μL of 0.09 units/mL acetylcholinesterase enzyme from Electrophoruselectricus (Sigma). After 15 minutes of incubation at 25°C, 10 μL of 10 mM 5,5′-dithiobis-2-nitrobenzoic acid (DTNB) was added into each well followed by 10 μL of acetylthiocholine iodide (14 mM). At 30 minutes after the initiation of enzymatic reaction, absorbance of the colored end-product was measured using BioTek Power Wave X 340 Microplate Spectrophotometer at 412 nm.
Galantamine was used as positive control. Test samples and galantamine were prepared in DMSO at an initial concentration of 1 mg/mL (1000 ppm). The concentration of DMSO in final reaction mixture was 1%.
The initial screening was carried out at 10 μg/mL of test samples in 1% DMSO and each test was conducted in triplicate. Absorbencies of the test samples were corrected by subtracting the absorbance of their respective blank. Percentage enzyme inhibition is calculated using the following formula: (1) Percentage of inhibition =[…]/Absorbance of control×100. Subsequently, the determination of IC50 was carried out using a set of five concentrations.
All newly synthesized 1,6-naphthyridines were evaluated in vitro for their inhibitory potential against AChE enzyme from electric eel using colorimetric Ellman's method (Table 1).
Broadly, the IC50 is the point on the concentration scale where inhibition reaches its midpoint. Compound `N#Cc1c(-c2cccc([N+](=O)[O-])c2)c2c([nH]c1=O)/C(=C/c1cccc([N+](=O)[O-])c1)CNC2` [4g, (E)-8-(3-Nitrobenzylidene)-4-(3-nitrophenyl)-2-oxo-1,2,5,6,7,8-hexahydro-1,6-naphthyridine-3-carbonitrile] yielded an IC50 of 16.86 ± 0.02 µM.

Staying with this assay, now noted: Ellman's method, AChE from electric eel, triplicate, five concentrations; read-out: AChE inhibition (IC50 ± SD).
As for `N#Cc1c(-c2ccccc2)c2c([nH]c1=O)/C(=C/c1ccccc1)CNC2` [4a, (E)-8-Benzylidene-2-oxo-4-phenyl-1,2,5,6,7,8-hexahydro-1,6-naphthyridine-3-carbonitrile], the IC50 is 11.18 ± 0.02 µM.
As to `Cc1ccccc1/C=C1\CNCc2c1[nH]c(=O)c(C#N)c2-c1ccccc1C` [4b, (E)-8-(2-Methylbenzylidene)-2-oxo-4-(o-tolyl)-1,2,5,6,7,8-hexahydro-1,6-naphthyridine-3-carbonitrile], the IC50 came out at 7.2 ± 0.02 µM.
On the same count and under the same terms, the same measure for `N#Cc1c(-c2ccccc2Cl)c2c([nH]c1=O)/C(=C/c1ccccc1Cl)CNC2` [4c, (E)-8-(2-Chlorobenzylidene)-4-(2-chlorophenyl)-2-oxo-1,2,5,6,7,8-hexahydro-1,6-naphthyridine-3-carbonitrile]: 15.21 ± 0.1 µM.
Regarding `N#Cc1c(-c2ccccc2Br)c2c([nH]c1=O)/C(=C/c1ccccc1Br)CNC2` [4d, (E)-8-(2-Bromobenzylidene)-4-(2-bromophenyl)-2-oxo-1,2,5,6,7,8-hexahydro-1,6-naphthyridine-3-carbonitrile], the half-maximal inhibitory concentration (IC50) worked out at 18.16 ± 0.02 µM.
Turning to `COc1ccccc1/C=C1\CNCc2c1[nH]c(=O)c(C#N)c2-c1ccccc1OC` [4e, (E)-8-(2-Methoxybenzylidene)-4-(2-methoxyphenyl)-2-oxo-1,2,5,6,7,8-hexahydro-1,6-naphthyridine-3-carbonitrile], the IC50 turned out to be 2.12 ± 0.02 µM.
The same measure, in the same setting: the same measure for `N#Cc1c(-c2ccc(Cl)cc2Cl)c2c([nH]c1=O)/C(=C/c1ccc(Cl)cc1Cl)CNC2` [4f, (E)-8-(2,4-Dichlorobenzylidene)-4-(2,4-dichlorophenyl)-2-oxo-1,2,5,6,7,8-hexahydro-1,6-naphthyridine-3-carbonitrile]: 24.72 ± 0.01 µM; for `Cc1ccc(/C=C2\CNCc3c2[nH]c(=O)c(C#N)c3-c2ccc(C)cc2)cc1` [4h, (E)-8-(4-Methylbenzylidene)-2-oxo-4-(p-tolyl)-1,2,5,6,7,8-hexahydro-1,6-naphthyridine-3-carbonitrile]: 7.16 ± 0.02 µM.
The same measure, in the same setting: the figure for `N#Cc1c(-c2ccc(Cl)cc2)c2c([nH]c1=O)/C(=C/c1ccc(Cl)cc1)CNC2` [4i, (E)-8-(4-Chlorobenzylidene)-4-(4-chlorophenyl)-2-oxo-1,2,5,6,7,8-hexahydro-1,6-naphthyridine-3-carbonitrile] is 3.86 ± 0.02 µM; for `N#Cc1c(-c2ccc(F)cc2)c2c([nH]c1=O)/C(=C/c1ccc(F)cc1)CNC2` [4j, (E)-8-(4-Fluorobenzylidene)-4-(4-fluorophenyl)-2-oxo-1,2,5,6,7,8-hexahydro-1,6-naphthyridine-3-carbonitrile] it is 14.16 ± 0.02 µM; for `N#Cc1c(-c2cccc3ccccc23)c2c([nH]c1=O)/C(=C/c1cccc3ccccc13)CNC2` [4k, (E)-4-(Naphthalen-1-yl)-8-(naphthalen-1-ylmethylene)-2-oxo-1,2,5,6,7,8-hexahydro-1,6-naphthyridine-3-carbonitrile] it is 6.86 ± 0.02 µM.
